These are literature values, as cited in patent US11737967B2, “Increasing the stability of agents for treating keratin material” (Henkel AG & Co. KGaA, priority 2019, dated 2023).

For the data set the following is noted: 25° C.
Consider `CCN(Cc1cccc(S(=O)(=O)[O-])c1)c1ccc(C(=C2C=CC(=[N+](CC)Cc3cccc(S(=O)(=O)[O-])c3)C=C2)c2ccccc2S(=O)(=O)[O-])cc1.[Na+].[Na+]` [Acid Blue 9], for which the solubility in water result is “more than 20 % by weight”. For the compound `O=C([O-])C1=NN(c2ccc(S(=O)(=O)[O-])cc2)C(=O)C1N=Nc1ccc(S(=O)(=O)[O-])cc1.[Na+].[Na+].[Na+]` (centres unmarked) [Acid Yellow 23, trisodium salt of 4,5-dihydro-5-oxo-1-(4-sulfophenyl)-4-((4-sulfophenyl)azo)-1H-pyrazole-3-carboxylic acid], the “solubility in water” value is “highly soluble”. Turning to `Nc1cc(S(=O)(=O)[O-])cc2cc(S(=O)(=O)[O-])c(N=Nc3ccccc3)c(O)c12.[Na+].[Na+]` [Acid Red 33, diantrium salt of 5-amino-4-hydroxy-3-(phenylazo)-naphthalene-2,7-disulphonate], the solubility in water was 2500 µg/mL. In the case of `O=S(=O)([O-])c1ccc(N=Nc2c(O)ccc3ccccc23)cc1.[Na+]` [Acid Orange 7, sodium salt of 4-[(2-hydroxy-1-naphthyl)azo]benzene sulphonate], the solubility in water entry is “more than 7 g/L”. In the case of `O=C([O-])c1c(Cl)c(Cl)c(Cl)c(Cl)c1-c1c2c(Br)cc(=O)c(Br)c-2oc2c(Br)c(O)cc(Br)c12.O=C([O-])c1c(Cl)c(Cl)c(Cl)c(Cl)c1-c1c2c(Br)cc(=O)c(Br)c-2oc2c(Br)c(O)cc(Br)c12.[Na+].[Na+]` [Acid Red 92, disodium salt of 3,4,5,6-tetrachloro-2-(1,4,5,8-tetrabromo-6-hydroxy-3-oxoxanthen-9-yl)benzoic acid], the solubility in water result is recorded as “greater than 10 g/L”.
